Experimental data: ChEMBL document CHEMBL1157039, “Synthesis and characterization of novel fatty acid analogs of cholesterol: in vitro antimicrobial activity” (2010)
Converted amounts (≈) assume the structure as drawn.

Legend:
Streptococcus mutans [1] = experiment: Antibacterial activity against Streptococcus mutans UA159 MTCC 497 after 24 hrs by disk diffusion method; type: functional
Streptococcus pyogenes [2] = experiment: Antibacterial activity against recultured Streptococcus pyogenes after 24 hrs by disk diffusion method; type: functional
Staphylococcus aureus [3] = experiment: Antibacterial activity against Staphylococcus aureus ATCC 25923 after 24 hrs by disk diffusion method; type: functional
Pseudomonas aeruginosa [4] = experiment: Antibacterial activity against Pseudomonas aeruginosa ATCC 27853 after 24 hrs by disk diffusion method; type: functional
Salmonella enterica [5] = experiment: Antibacterial activity against recultured Salmonella Typhimurium after 24 hrs by disk diffusion method; type: functional, Salmonella enterica subsp. enterica serovar Typhimurium
Escherichia coli [6] = experiment: Antibacterial activity against Escherichia coli ATCC 25922 after 24 hrs by disk diffusion method; type: functional
Streptococcus mutans [7] = experiment: Antibacterial activity against Streptococcus mutans UA159 MTCC 497 after 24 hrs by microdilution method; type: functional; conditions: UA159 MTCC 497, 24 h
Streptococcus pyogenes [8] = experiment: Antibacterial activity against recultured Streptococcus pyogenes after 24 hrs by microdilution method; type: functional
Staphylococcus aureus [9] = experiment: Antibacterial activity against Staphylococcus aureus ATCC 25923 after 24 hrs by microdilution method; type: functional; conditions: ATCC 25923, 24 h
Pseudomonas aeruginosa [10] = experiment: Antibacterial activity against Pseudomonas aeruginosa ATCC 27853 after 24 hrs by microdilution method; type: functional; conditions: ATCC 27853, 24 h
Salmonella enterica [11] = experiment: Antibacterial activity against recultured Salmonella Typhimurium after 24 hrs by microdilution method; type: functional, Salmonella enterica subsp. enterica serovar Typhimurium
Escherichia coli [12] = experiment: Antibacterial activity against Escherichia coli ATCC 25922 after 24 hrs by microdilution method; type: functional; conditions: ATCC 25922, 24 h
Candida albicans [13] = experiment: Antifungal activity against Candida albicans ATCC 24433 after 48 to 72 hrs by disk diffusion method; type: functional
Pichia kudriavzevii [14] = experiment: Antifungal activity against Candida krusei ATCC 6528 after 48 to 72 hrs by disk diffusion method; type: functional
Candida parapsilosis [15] = experiment: Antifungal activity against Candida parapsilosis ATCC 22019 after 48 to 72 hrs by disk diffusion method; type: functional
Cryptococcus neoformans [16] = experiment: Antifungal activity Cryptococcus neoformans after 48 to 72 hrs by disk diffusion method; type: functional
Candida albicans [17] = experiment: Antifungal activity against Candida albicans ATCC 24433 after 48 to 72 hrs by microdilution method; type: functional
Pichia kudriavzevii [18] = experiment: Antifungal activity against Candida krusei ATCC 6528 after 48 to 72 hrs by microdilution method; type: functional
Candida parapsilosis [19] = experiment: Antifungal activity against Candida parapsilosis ATCC 22019 after 48 to 72 hrs by microdilution method; type: functional; conditions: Lodderomyces parapsilosis
Cryptococcus neoformans [20] = experiment: Antifungal activity Cryptococcus neoformans after 48 to 72 hrs by microdilution method; type: functional
Streptococcus mutans [21] = experiment: Antibacterial activity against Streptococcus mutans UA159 MTCC 497 at 30 ug/mL after 24 hrs by disk diffusion method; type: functional; conditions: UA159 MTCC 497, 24 h, read-out: DIZ
Streptococcus pyogenes [22] = experiment: Antibacterial activity against recultured Streptococcus pyogenes at 30 ug/mL after 24 hrs by disk diffusion method; type: functional; conditions: read-out: DIZ
Staphylococcus aureus [23] = experiment: Antibacterial activity against Staphylococcus aureus ATCC 25923 at 30 ug/mL after 24 hrs by disk diffusion method; type: functional; conditions: ATCC 25923, 24 h, read-out: DIZ
Pseudomonas aeruginosa [24] = experiment: Antibacterial activity against Pseudomonas aeruginosa ATCC 27853 at 30 ug/mL after 24 hrs by disk diffusion method; type: functional; conditions: ATCC 27853, 24 h, read-out: DIZ
Salmonella enterica [25] = experiment: Antibacterial activity against recultured Salmonella Typhimurium at 30 ug/mL after 24 hrs by disk diffusion method; type: functional, Salmonella enterica subsp. enterica serovar Typhimurium; conditions: read-out: DIZ
Escherichia coli [26] = experiment: Antibacterial activity against Escherichia coli ATCC 25922 at 30 ug/mL after 24 hrs by disk diffusion method; type: functional; conditions: ATCC 25922, 24 h, read-out: DIZ
Candida albicans [27] = experiment: Antifungal activity against Candida albicans ATCC 24433 at 30 ug/mL after 48 to 72 hrs by disk diffusion method; type: functional; conditions: read-out: DIZ
Pichia kudriavzevii [28] = experiment: Antifungal activity against Candida krusei ATCC 6528 at 30 ug/mL after 48 to 72 hrs by disk diffusion method; type: functional; conditions: read-out: DIZ
Candida parapsilosis [29] = experiment: Antifungal activity against Candida parapsilosis ATCC 22019 at 30 ug/mL after 48 to 72 hrs by disk diffusion method; type: functional; conditions: Lodderomyces parapsilosis, read-out: DIZ
Cryptococcus neoformans [30] = experiment: Antifungal activity Cryptococcus neoformans at 30 ug/mL after 48 to 72 hrs by disk diffusion method; type: functional; conditions: read-out: DIZ

Row | Compound | diameter of the inhibition zone (DIZ) (Streptococcus mutans [1]) [mm] | diameter of the inhibition zone (DIZ) (Streptococcus pyogenes [2]) [mm] | diameter of the inhibition zone (DIZ) (Staphylococcus aureus [3]) [mm] | diameter of the inhibition zone (DIZ) (Pseudomonas aeruginosa [4]) [mm] | diameter of the inhibition zone (DIZ) (Salmonella enterica [5]) [mm] | diameter of the inhibition zone (DIZ) (Escherichia coli [6]) [mm] | MIC (Streptococcus mutans [7]) [µg/mL] | MIC (Streptococcus pyogenes [8]) [µg/mL] | MIC (Staphylococcus aureus [9]) [µg/mL] | MIC (Pseudomonas aeruginosa [10]) [µg/mL] | MIC (Salmonella enterica [11]) [µg/mL] | MIC (Escherichia coli [12]) [µg/mL] | diameter of the inhibition zone (DIZ) (Candida albicans [13]) [mm] | diameter of the inhibition zone (DIZ) (Pichia kudriavzevii [14]) [mm] | diameter of the inhibition zone (DIZ) (Candida parapsilosis [15]) [mm] | diameter of the inhibition zone (DIZ) (Cryptococcus neoformans [16]) [mm] | MIC (Candida albicans [17]) [µg/mL] | MIC (Pichia kudriavzevii [18]) [µg/mL] | MIC (Candida parapsilosis [19]) [µg/mL] | MIC (Cryptococcus neoformans [20]) [µg/mL] | other results
1 | C=CCCCCCCCCC(=O)O[C@H]1CC[C@@]2(C)C(=CC[C@H]3[C@@H]4CC[C@H]([C@H](C)CCCC(C)C)[C@@]4(C)CC[C@@H]32)C1 | 20.5 | 19.2 | 19.8 | 16.2 | 16.4 | 16.5 | 32 (≈ 57.9 µM) | 32 (≈ 57.9 µM) | 64 (≈ 116 µM) | 32 (≈ 57.9 µM) | 128 (≈ 231 µM) | 128 (≈ 231 µM) | 18.3 | 16.1 | 15.1 | 12.1 | 2 (≈ 3.62 µM) | 256 (≈ 463 µM) | 32 (≈ 57.9 µM) | 128 (≈ 231 µM) | 
2 | CC(C)CCC[C@@H](C)[C@H]1CC[C@H]2[C@@H]3CC=C4C[C@@H](OC(=O)CCCCCCCCC(Br)CBr)CC[C@]4(C)[C@H]3CC[C@]12C (stereo not given in full) | 20.3 | 18.8 | 19.5 | 15.1 | 16.1 | 16.4 | 32 (≈ 44.9 µM) | 32 (≈ 44.9 µM) | 64 (≈ 89.8 µM) | 128 (≈ 180 µM) | 128 (≈ 180 µM) | 128 (≈ 180 µM) | 19.5 | 17.5 | 16.8 | 15.9 | 1 (≈ 1.4 µM) | 128 (≈ 180 µM) | 8 (≈ 11.2 µM) | 32 (≈ 44.9 µM) | 
3 | C=CCCCCCCCCC(=O)O[C@H]1CC[C@]2(C)[C@H]3CC[C@]4(C)[C@@H]([C@H](C)CCCC(C)C)CC[C@H]4[C@@H]3C[C@@H](Br)[C@@]2(Br)C1 | 21.5 | 20.2 | 20.1 | 17.1 | 16.2 | 19.8 | 32 (≈ 44.9 µM) | 64 (≈ 89.8 µM) | 64 (≈ 89.8 µM) | 512 (≈ 718 µM) | 128 (≈ 180 µM) | 128 (≈ 180 µM) | 15.5 | 13.4 | 12.8 | 12.7 | 16 (≈ 22.4 µM) | 256 (≈ 359 µM) | 256 (≈ 359 µM) | 128 (≈ 180 µM) | 
4 | CC(C)CCC[C@@H](C)[C@H]1CC[C@H]2[C@@H]3C[C@@H](Br)[C@@]4(Br)C[C@@H](OC(=O)CCCCCCCCC(Br)CBr)CC[C@]4(C)[C@H]3CC[C@]12C (stereo not given in full) | 23.1 | 23.3 | 22.5 | 17.1 | 21.3 | 20.5 | 32 (≈ 36.7 µM) | 32 (≈ 36.7 µM) | 32 (≈ 36.7 µM) | 64 (≈ 73.3 µM) | 64 (≈ 73.3 µM) | 32 (≈ 36.7 µM) | 17.8 | 15.5 | 14.4 | 13.8 | 4 (≈ 4.58 µM) | 512 (≈ 587 µM) | 64 (≈ 73.3 µM) | 64 (≈ 73.3 µM) | 
5 | CC(C)CCC[C@@H](C)[C@H]1CC[C@H]2[C@@H]3CC=C4C[C@@H](OC(=O)CCCCCCCCC5CO5)CC[C@]4(C)[C@H]3CC[C@]12C (stereo not given in full) | 21.9 | 20.5 | 21.9 | 18.5 | 17.2 | 19.9 | 32 (≈ 56.2 µM) | 32 (≈ 56.2 µM) | 32 (≈ 56.2 µM) | 64 (≈ 112 µM) | 64 (≈ 112 µM) | 32 (≈ 56.2 µM) | 19.6 | 17.8 | 16.9 | 15.8 | 1 (≈ 1.76 µM) | 128 (≈ 225 µM) | 8 (≈ 14.1 µM) | 32 (≈ 56.2 µM) | 
6 | CCCCCCC(O)C/C=C\CCCCCCCC(=O)O[C@H]1CC[C@@]2(C)C(=CC[C@H]3[C@@H]4CC[C@H]([C@H](C)CCCC(C)C)[C@@]4(C)CC[C@@H]32)C1 (stereo not given in full) | 22.8 | 22.6 | 22.1 | 16.5 | 21.1 | 20.4 | 32 (≈ 48 µM) | 32 (≈ 48 µM) | 32 (≈ 48 µM) | 128 (≈ 192 µM) | 32 (≈ 48 µM) | 32 (≈ 48 µM) | 20.3 | 18.7 | 17.8 | 16.9 | 1 (≈ 1.5 µM) | 64 (≈ 95.9 µM) | 8 (≈ 12 µM) | 8 (≈ 12 µM) | 
7 | CCCCC/C=C\CCC(O)CCCCCCCC(=O)O[C@H]1CC[C@@]2(C)C(=CC[C@H]3[C@@H]4CC[C@H]([C@H](C)CCCC(C)C)[C@@]4(C)CC[C@@H]32)C1 (stereo not given in full) | 17.3 | 16.8 | 17.1 | 8.8 | 14.8 | 9.6 | 64 (≈ 95.9 µM) | 128 (≈ 192 µM) | 64 (≈ 95.9 µM) | 128 (≈ 192 µM) | 128 (≈ 192 µM) | 512 (≈ 767 µM) | 22.5 | 20.7 | 19.8 | 19.1 | 1 (≈ 1.5 µM) | 64 (≈ 95.9 µM) | 8 (≈ 12 µM) | 8 (≈ 12 µM) | 
8 | O=C(N[C@H](CO)[C@H](O)c1ccc([N+](=O)[O-])cc1)C(Cl)Cl [CHLORAMPHENICOL] |  |  |  |  |  |  | 32 (≈ 99 µM) | 32 (≈ 99 µM) | 32 (≈ 99 µM) | 32 (≈ 99 µM) | 32 (≈ 99 µM) | 32 (≈ 99 µM) |  |  |  |  |  |  |  |  | zone of inhibition at 30 µg/mL (Streptococcus mutans [21]): 26.8 mm; zone of inhibition at 30 µg/mL (Streptococcus pyogenes [22]): 22.4 mm; zone of inhibition at 30 µg/mL (Staphylococcus aureus [23]): 21 mm; zone of inhibition at 30 µg/mL (Pseudomonas aeruginosa [24]): 17.1 mm; zone of inhibition at 30 µg/mL (Salmonella enterica [25]): 25.2 mm; zone of inhibition at 30 µg/mL (Escherichia coli [26]): 20 mm
9 | CCCCCCCC/C=C\CCCCCCCC(=O)O[C@H]1CC[C@@]2(C)C(=CC[C@H]3[C@@H]4CC[C@H]([C@H](C)CCCC(C)C)[C@@]4(C)CC[C@@H]32)C1 [CHOLESTERYL OLEATE] | 18.9 | 17.2 | 17.8 | 14.3 | 15.1 | 16.1 | 64 (≈ 98.3 µM) | 64 (≈ 98.3 µM) | 64 (≈ 98.3 µM) | 128 (≈ 197 µM) | 128 (≈ 197 µM) | 128 (≈ 197 µM) | 18.7 | 16.8 | 15.7 | 15.1 | 2 (≈ 3.07 µM) | 256 (≈ 393 µM) | 16 (≈ 24.6 µM) | 32 (≈ 49.1 µM) | 
10 | OC(Cn1cncn1)(Cn1cncn1)c1ccc(F)cc1F [FLUCONAZOLE] |  |  |  |  |  |  |  |  |  |  |  |  |  |  |  |  | 1 (≈ 3.27 µM) | 64 (≈ 209 µM) | 8 (≈ 26.1 µM) | 8 (≈ 26.1 µM) | zone of inhibition at 30 µg/mL (Candida albicans [27]): 20 mm; zone of inhibition at 30 µg/mL (Pichia kudriavzevii [28]): 20 mm; zone of inhibition at 30 µg/mL (Candida parapsilosis [29]): 18 mm; zone of inhibition at 30 µg/mL (Cryptococcus neoformans [30]): 19 mm
